These results are taken from US20230076310A1, “COMPOSITION USING NOVEL LACTOBACILLUS PLANTARUM KC3 STRAIN FOR PREVENTION OR TREATMENT OF IMMUNE IMPAIRMENT, RESPIRATORY INFLAMMATORY DISEASE, ALLERGY, AND ASTHMA AND USE THEREOF” (KT&G CORPORATION, priority 2020, published 2023).

In test [1] the test system is croton oil-induced mouse ear edema. In words: Croton oil-induced mouse ear edema test. The format is in vivo, ICR mice. As to conditions: 10 mg/kg BW oral, about 4 hours after 2.5% croton oil. The procedure:
To confirm anti-inflammatory effect of the probiotic lactic acid bacteria (Lactobacillus plantarum KC3, KC3) on ear edema, an experiment was performed according to the croton oil-induced mouse ear edema method by applying the method described in the document (Dong Wook Kim, Kun Ho Son, Hyeun Wook Chang, KiHwan Bae and Sam Sik Kang, Arch Pharm Res., 2003, 3, pp 232-236).
To evaluate anti-inflammatory activity of the samples of the Example above, a croton oil-induced mouse ear edema test was carried out, and results thereof were obtained by measuring the ear thickness of the samples as shown in Table 8. […]
About 1 hour after administration, 2.5% croton oil (C0421 available from TCI Company, […]) dissolved in acetone was applied evenly to the inside and outside of the right ear of each mice to induce ear edema. […] Then, the degree of edema in the ears of the mice was measured according to variations in speed by measuring the thickness of both ears using a thickness gauge (Digimatic thickness gauge, 547-301, Mitutoyo, Japan). Here, based on the degree of and the inhibition rate (%) was calculated based on the degree of edema of the mice in the negative control group (0.5% sodium carboxymethyl cellulose (CMC), Sigma-Aldrich 419273), inhibition rates (%) were calculated, and results thereof are shown in Table 8 below.

The test system of test [2] is Lactobacillus plantarum KC3. Briefly: Antibiotics resistance experiment (antibiotic strips on LSM solid medium). As to conditions: antibiotic strip on KC3 lawn, 37° C. for 24 hours. The format is cell-based. The procedure: In order to confirm antibiotics resistance level of the new lactic acid bacteria from the of the Lactobacillus plantarum KC3 the present disclosure, an experiment was performed as follows by applying the method described in the document ([1] Mathur, S. and R. Singh, Antibiotic resistance in food lactic acid bacteria—A review. Int. J. Food Microbiol 2005 105: 281-295); [2] European Food Safety Authority, Guidance on the assessment of bacterial susceptibility to antimicrobials of human and veterinary importance: EFSA Panel on Additives and Products or Substances used in Animal Feed (FEEDAP). The EFSA Journal 2012 2740:1-10. doi:10.2903/j.efsa.2012.2740).
To measure the antibiotics resistance level of the strain, an MIC test was carried out. Lactic acid bacteria that were inoculated into an MRS medium (DF0881-17-5, Difco) and cultured at 37° C. for 18 hours were spread on an LSM solid medium (90% iso-sensitest broth (CM0473, Oxoid), 10% MRS medium (DF0881-17-5, Difco), and 1.5% agar (214010, Difco)). Strips for each type of antibiotics, such as Amikacin (92018, Liofilchem srl), Gentamycin (92009, Liofilchem srl), Kanamycin (92034, Liofilchem srl), Streptomycin (92112, Liofilchem srl), Penicillin-G (92102, Liofilchem srl), Oxacillin (92015, Liofilchem srl), Ampicillin (920030, Liofilchem srl), Bacitracin (92019, Liofilchem srl), Rifampicin (92001, Liofilchem srl), Polymyxin B (92004, Liofilchem srl), Chloramphenico I (92075, Liofilchem srl), Vancomycin (92057, Liofilchem srl), and the like, were put on the medium, and the bacteria were grown at 37° C. for 24 hours.
In Table 4, R indicates resistance and represents that the size of an inhibition zone is about 0 mm; IS indicates medium resistance and represents that the size of an inhibition zone is in a range of about 1 mm to about 5 mm; and S indicates […] and represents that the size of an inhibition zone is greater than about 5 mm.

For test [3], the system named is total number of cells in bronchoalveolar lavage (BAL) fluid. In words: Total number of cells in BAL fluid, mouse model of respiratory damage by air pollutants. The following applies: oral, 11 days (KC3 1×10^9 CFU/mouse; positive control 3 mg per kg BW per day), BAL fluid on 12th day. The format is in vivo, BALb/c male mice. The method, then: (§1) BALb/c male mice (Orient Bio Inc., 8-week-old) were divided into groups of 6 mice, and for all groups except for the normal group, components of air pollutants, i.e., 10 mg/ml of coal combustible materials, 10 mg/ml of fly ash, and 5 mg/ml of diesel exhaust particle (DEP) were diluted so that a final concentration of Alum was 1%, and so that a final concentration of each component was 1.5 mg/ml for coal combustible material/fly ash and […] for DEP in a mixture. Then, on each of the 4th, 7th, and 10th days from the start of the experiment, 50 μl of the mixture was directly injected into the airway and nose of the experimental animals according to the Intra-Nazal-Trachea (INT) injection method described in the document (Lim et al., Free Radic Biol Med. 25(6), 635-644. (1998), Shin et al., Korean J. Medicinal Crop Sci 27(3), 218-231. (2019)).
(§2) For a positive control group (dexamethasone, Sigma D2915), lactic acid bacteria (Lactobacillus plantarum KC3, KC3) was diluted at a concentration of 1×10^9 CFU/mouse in a solution containing 0.5% sodium carboxymethyl cellulose (CMC, 419273, Sigma-Aldrich), and then orally administered at a dosage of 3 mg per kg of body weight (BW) per day (for 11 days). On the 12th day after the start of the experiment, an autopsy was performed on the mice, and bronchoalveolar lavage (BAL) fluid was collected. […]

For test [4], the system named is neutrophils in BAL fluid. In words: Number of neutrophils in BAL fluid, mouse model of respiratory damage by air pollutants. The test is classed as in vivo, BALb/c male mice. As to conditions: oral, 11 days (KC3 1×10^9 CFU/mouse; positive control 3 mg per kg BW per day). The method, then:
as §1, §2

In test [5] the test system is CXCL-1. Briefly: Inflammation factors in BAL fluid (ELISA), mouse model of respiratory damage by air pollutants. The format is in vivo, BALb/c male mice. As to conditions: oral, 11 days (KC3 1×10^9 CFU/mouse; positive control 3 mg per kg BW per day). The procedure: as §1
(§3) For a positive control group (dexamethasone, Sigma D2915), lactic acid bacteria (Lactobacillus plantarum KC3, KC3) was diluted at a concentration of 1×10^9 CFU/mouse in a solution containing 0.5% sodium carboxymethyl cellulose (CMC, 419273, Sigma-Aldrich), and then orally administered at a dosage of 3 mg per kg of body weight (BW) per day (for 11 days). On the 12th day after the start of the experiment, an autopsy was performed on the mice, and bronchoalveolar lavage (BAL) fluid was collected.
(§4) To confirm effects of the samples in Examples above on expression levels of inflammation factors in the BAL fluid, an experiment was carried out as follows by applying the method described in the document (Brandt E B et al., J. Allergy Clin. Immunol., 132(5):1194-1204, (2013)).
(§5) An evaluation test was performed using ELISA to measure the expression levels of inflammation factors, such as IL-17A, TNF-α MIP2, and CXCL-1, in the BAL fluid.
(§6) The experiment was carried out in the same manner as in Experimental Examples 4-2 and 4-3, except that […].
(§7) The expression levels of IL-17A, TNF-α MIP2, and CXCL-1 in the BAL fluid were measured using ELISA. IL-17A antibodies (M1700, R&D Systems, Minneapolis, USA), TNF-α antibodies (MTA00B, R&D Systems, Minneapolis, USA), MIP2 antibodies (MM200, R&D Systems, Minneapolis, USA), and CXCL-1 antibodies (MKC00B, R&D Systems, Minneapolis, USA) were diluted with a buffer solution and coated micro-wells, and then cultured at 4° C. for 16 hours. Each well was washed with a washing buffer solution three times, and 10-fold diluted […] was dispensed at 100 μl per well.
(§8) After being left at room temperature for one hour, the wells were washed twice. Then, 100 μl of Avidin-HRP-conjugated antibodies (DY007, R&D Systems, Minneapolis, USA) was treated thereon, and the wells were left again at room temperature for one hour, followed by washing again. A TMB substrate solution (DY007, R&D Systems, Minneapolis, USA) was dispensed at 100 μl per well, and the well plate was left in shadow for 30 minutes. Then, 50 μl of a stopping solution (DY007, R&D Systems, Minneapolis, USA) was treated thereon, and absorbance of the […] was measured at 450 nm.
On the technique in general: An ELISA detects its analyte on a solid surface through an enzyme-linked reagent.

Test [6] relates to IL-17A. Described as above. The test is classed as in vivo, BALb/c male mice. As to conditions: oral, 11 days (KC3 1×10^9 CFU/mouse; positive control 3 mg per kg BW per day). The procedure: as §1, §3, §4, §5, §6, §7, §8
Test [7] relates to MIP2. The description is as above. The format is in vivo, BALb/c male mice. The following applies: oral, 11 days (KC3 1×10^9 CFU/mouse; positive control 3 mg per kg BW per day). The method, then:
as §1, §3, §4, §5, §6, §7, §8

The test system of test [8] is TNF-α. The test is described as above. The following applies: oral, 11 days (KC3 1×10^9 CFU/mouse; positive control 3 mg per kg BW per day). The test is classed as in vivo, BALb/c male mice. The procedure:
as §1, §3, §4, §5, §6, §7, §8

As for `COc1ccc2c(c1)c(CC(=O)O)c(C)n2C(=O)c1ccc(Cl)cc1` [Indomethacin], the “Inhibition rate of ear edema (% of control)” value in test [1] is reported as 25.6 ± 2.2 % of control. In test [1] (edema control 0.806 ± 0.068), the “Thickness (ear)” value turned out to be 0.684 ± 0.054.
In the case of `Cc1onc(-c2ccccc2)c1C(=O)N[C@@H]1C(=O)N2[C@@H]1SC(C)(C)[C@@H]2C(=O)O` [Oxacillin], in test [2], the “Antibiotic resistance (class)” value is “IS (IS indicates medium resistance and represents that the size of an inhibition zone is in a range of about 1 mm to about 5 mm)”; the “Antibiotic resistance, size of inhibition zone” value is recorded as “(2 mm)”.
As to Neomycin, in test [2], the “Antibiotic resistance (class)” value was “IS (IS indicates medium resistance and represents that the size of an inhibition zone is in a range of about 1 mm to about 5 mm)”; the “Antibiotic resistance, size of inhibition zone” value is reported as “(3 mm)”.
With `NCC[C@H](O)C(=O)N[C@@H]1C[C@H](N)[C@@H](O[C@H]2O[C@H](CN)[C@@H](O)[C@H](O)[C@H]2O)[C@H](O)[C@H]1O[C@H]1O[C@H](CO)[C@@H](O)[C@H](N)[C@H]1O` [Amikacin], in test [2], the “Antibiotic resistance (class)” value was “IS (IS indicates medium resistance and represents that the size of an inhibition zone is in a range of about 1 mm to about 5 mm)”; the “Antibiotic resistance, size of inhibition zone” value is recorded as “(1 mm)”.
`[H]/N=C(/N)N[C@H]1[C@H](O)[C@@H](O)[C@H](O[C@@H]2O[C@@H](C)[C@](O)(C=O)[C@H]2O[C@@H]2O[C@@H](CO)[C@H](O)[C@@H](O)[C@@H]2NC)[C@@H](N/C(N)=N\[H])[C@@H]1O` [Streptomycin]: in test [2], the “Antibiotic resistance (class)” value is “R (R indicates resistance and represents that the size of an inhibition zone is about 0 mm)”; the “Antibiotic resistance, size of inhibition zone” value was “(0 mm)”.
Turning to `O=C(N[C@H](CO)[C@H](O)c1ccc([N+](=O)[O-])cc1)C(Cl)Cl` [Chloramphenicol], in test [2], the “Antibiotic resistance (class)” value is “S (S indicates resistance and represents that the size of an inhibition zone is greater than about 5 mm)”; the “Antibiotic resistance, size of inhibition zone” value is given as “(10 mm)”.
As to `C[C@@H]1C[C@H]2[C@@H]3CCC4=CC(=O)C=C[C@]4(C)[C@@]3(F)[C@@H](O)C[C@]2(C)[C@@]1(O)C(=O)CO` [Positive control group, dexamethasone], in test [3], the “Inhibition rate (based on induction group), total BAL cell” value came to 11%. Further, in test [3] (induction group 81.2 ± 19.8), the “Total BAL cell” value is 72.6 ± 9.5 ×10^4 cells/ml. Besides, the “Inhibition rate (based on induced group), neutrophils” value in test [4] is on record as 10%. In addition, the “Neutrophile No of BAL cel (400X)” value in test [4] (Diff-Qick staining, induction group 119 ± 13) was found to be 108 ± 9. Moreover, in test [5], the “CXCL-1 inhibition rate (%) based on induced group” value was “(46%)”. Also, in test [5] (ELISA, induction group 327 ± 41), the “CXCL-1 concentration in BAL fluid” value turned out to be 174 ± 15 pg/mL. Besides, in test [6], the “IL-17A inhibition rate (%) based on induced group” value was “(47%)”. In addition, the “IL-17A concentration in BAL fluid” value in test [6] (ELISA, induction group 13.4 ± 1.5) stood at 7.0 ± 0.8 pg/mL. In test [7], the “MIP2 inhibition rate (%) based on induced group” value is reported as “(19%)”. In test [7] (ELISA, induction group 68 ± 7), the “MIP2 concentration in BAL fluid” value is 55 ± 9 pg/mL. In addition, the “TNF-α inhibition rate (%) based on induced group” value in test [8] is given as “(66%)”. In addition, in test [8] (ELISA, induction group 366 ± 45), the “TNF-α concentration in BAL fluid” value turned out to be 121 ± 14 pg/mL.
